The results in this text go back to patent US20230201188A1, “COMPOSITIONS AND METHODS FOR TREATING LEUKEMIA” (Augusta University Research Institute, Inc., priority 2020, published 2023).

The test system of test [1] is patient-derived ATL cells. The test can be described thus: ATL patient-derived cell viability. The note with it: various concentrations, FIG. 1B. It is filed as cell-based. How it is done:
(§1) HUT 102 cells and patient-derived ATL cells were treated with various concentrations of mJJ64C (Compound 17) or mJJ64 (Compound 1). Cell viability was determined.

Another test concerns the target Akt3 (Homo sapiens, UniProt Q9Y243). The test is described as follows: Akt3 inhibition (no method described).
A further test relates to b-cat. The test can be described thus: b-cat gene expression in HUT102 cells (RT-PCR). It counts as cell-based. The following applies: at 2 uM and above, FIG. 2. How it is done:
(§2) HUT102 cells were treated with different concentrations of Compound 17 (0.5 uM, 1 uM, 2 uM and 4 uM). Expression of b-cat, c-myc, and survivin were evaluated using RT-PCR.

In the next test the test system is c-myc. The test is described as follows: c-myc gene expression in HUT102 cells (RT-PCR). It counts as cell-based. The following applies: at 2 uM and above, FIG. 2. How it is done:
as §2

The next test has as its system survivin. The test can be described thus: survivin gene expression in HUT102 cells (RT-PCR). The following applies: at 2 uM and above, FIG. 2. It counts as cell-based. How it is done: as §2
In another test the test system is HUT102 cells. The test can be described thus: HUT102 cell viability. It counts as cell-based. The following applies: various concentrations, FIG. 1A. Here is the method: as §1

Sequence of Akt3 (Q9Y243 whole entry): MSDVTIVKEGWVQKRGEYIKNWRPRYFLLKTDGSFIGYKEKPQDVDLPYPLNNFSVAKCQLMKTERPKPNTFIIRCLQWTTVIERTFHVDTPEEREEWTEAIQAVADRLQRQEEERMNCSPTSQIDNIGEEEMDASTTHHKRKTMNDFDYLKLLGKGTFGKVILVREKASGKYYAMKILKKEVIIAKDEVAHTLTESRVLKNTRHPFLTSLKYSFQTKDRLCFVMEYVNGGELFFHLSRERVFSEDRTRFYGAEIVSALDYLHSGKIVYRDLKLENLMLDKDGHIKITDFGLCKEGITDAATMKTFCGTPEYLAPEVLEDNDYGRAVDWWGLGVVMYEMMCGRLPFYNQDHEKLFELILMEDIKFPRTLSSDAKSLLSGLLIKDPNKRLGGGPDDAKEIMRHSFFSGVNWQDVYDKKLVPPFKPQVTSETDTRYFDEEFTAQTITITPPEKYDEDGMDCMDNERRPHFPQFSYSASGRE

In the case of `O=C(Nc1ccc(Nc2ccncc2)cc1)c1ccc(Nc2ccnc3ccc([N+](=O)[O-])cc23)cc1` [Compound 1, 4-[(6-nitroquinolin-4-yl)amino]-N-[4-(pyridin-4-ylamino)phenyl]benzamide], the cell viability result in test [1] was “reduce cell viability”. Further, the Akt3 activity result on Akt3 is given as “selectively inhibits Akt3 activity”.

On to `O=C(Nc1cccc(Nc2ccncc2)c1)c1cccc(Nc2ccnc3ccc(F)cc23)c1` [Compound 17], for which the expression of b-cat entry in the test on b-cat is on record as “significantly inhibits”. The expression of c-myc entry in the test with c-myc is reported as “significantly inhibits”. Moreover, the expression of survivin result with survivin was “significantly inhibits”.

In the case of `O=C(O)c1ccc2nccc(Nc3ccc(C(=O)Nc4ccc(Nc5ccncc5)cc4)cc3)c2c1` [Compound 18], the cell viability result with HUT102 cells was “reduce cell viability”.
